{"source": "patent US20190290726A1", "about": "“PROTEIN POLYMER FUSIONS FOR SUBCUTANEOUS DELIVERY OF SMALL MOLECULES” (University of Southern California, priority 2016, published 2019)", "key": {"[1]": {"tested_on": "MDA-MB-468 breast cancer xenograft", "assay": "In vivo tumor regression study, subcutaneous administration", "settings": "0.75 mg/kg", "from_the_text": "Since there was no statistical difference in efficacy observed between FSI-Rapa and FAF-Rapa intravenously, Applicants next employed SC route of administration in the same MDA-MB-468 xenograft mouse model (FIGS. 5A-5H). The rationale behind exploring SC route was to distinguish the uptake and bio distribution of different FKBP-ELPs from the site of injection into the systemic circulation. […] SC route further presents a convenient administration method compared to IV route with more clinical relevance and has been FDA approved for monoclonal antibodies and biotherapeutics.\nThe comparative tumor regression study consisted of 5 groups: PBS, Free Rapa, FAF-Rapa, FA-Rapa, and FSI-Rapa at the same maximum tolerated dose of 0.75 mg/kg (n=6-8/group). All treatments were done subcutaneously in the right flank above the hind leg. […] Because of the toxic side effects, mice were thereafter treated with free Rapa in DMSO:EtOH:Cremophore-EL:PBS formulation in 1:1:2:6% v/v ratio. […] However, the mice gradually gained back the lost BW which enabled us to continue the treatment with the Cremophore formulation. To prevent further local discomfort to mice, a different site of injection was chosen each time spanning the entire flank region for free Rapa injections. […] There was no local bruising or scabs observed with any of the FKBP-ELP-Rapa formulations which made the treatment easier and at the same site of injection throughout the study.\nAll animal experiments were conducted as per the guidelines of the American Association of Laboratory Animal Care under an USC approved protocol. MDA-MB-468 cells (American Type Tissue Culture Collection) were cultured at 37° C. with 5% CO2 in Dulbecco's modified Eagle's medium (DMEM)/Ham's F-12 media (Caisson) supplemented with 10% fetal bovine serum. The cells were sent for screening against all major mouse pathogens and human blood borne pathogens (Charles River) prior to implantation. A single injection of MDA-MB-468 cells (1-2×10^6 cells in 100 μL fetal bovine serum free DMEM media) was implanted into the left mammary fat pad of 7-8 weeks old female nude (nu/nu) athymic mice (Harlan, Inc.) Tumors were allowed to grow to a size of ˜50-100 mm^3 and mice were randomized blindly into respective groups before start of treatment. […] BW and tumor size were measured thrice a week on the same day of injections. Tumor size was measured using Vernier calipers and tumor volume was calculated using the following equation:\nwhere a and b represents smaller and bigger length respectively. […] Tumor burden was calculated by determining the trapezoidal area under the growth curve for each mouse by using the following equation: […]"}, "[2]": {"settings": "cited from earlier work"}}, "note": "Entries after “also recorded” stand apart in the source; their conditions may differ.", "data": [{"smiles": "CO[C@H]1C[C@@H]2CC[C@@H](C)[C@@](O)(O2)C(=O)C(=O)N2CCCC[C@H]2C(=O)O[C@H]([C@H](C)C[C@@H]2CC[C@@H](O)[C@H](OC)C2)CC(=O)[C@H](C)/C=C(\\C)[C@@H](O)[C@@H](OC)C(=O)[C@H](C)C[C@H](C)/C=C/C=C/C=C/1C", "note": "[Free Rapa, (3S,6R,7E,9R,10R,12R,14S,15E,17E,19E,21S,23S,26R,27R,34aS)-9,10,12,13,14,21,22,23,24,25,26,27,32,33,34,34a-hexadecahydro-9,27-dihydroxy-3-[(1R)-2-[(1S,3R,4R)-4-hydroxy-3-methoxycyclohexyl]-1-methylethyl]-10,21-dimethoxy-6,8,12,14,20,26-hexamethyl-23,27-epoxy-3H-pyrido[2,1-c][1,4]-oxaazacyclohentriacontine-1,5,11,28,29(4H,6H,31H)-pentone]", "values": [{"measurement": "tumor burden compared to PBS group", "setting": "[1]; SC, Tukey post hoc, last day of treatment (day 50)", "result": "statistically significance compared to PBS group; also recorded: significantly lower compared to PBS"}, {"measurement": "Kaplan-Meier survival analysis", "setting": "[1]; SC, endpoint 4 times increase in tumor volume", "result": "better anti-tumor efficacy than other groups"}, {"measurement": "drop in BW", "setting": "[1]; mouse, in vivo, sc", "result": 10, "unit": "%"}, {"measurement": "toxicity, local toxicity at the site of injection", "setting": "[1]; mouse, in vivo, sc", "result": "considerable local toxicity at site of subcutaneous injection"}, {"measurement": "aqueous solubility", "setting": "[2]", "result": "~10", "unit": "µM"}]}]}
